PubChem BioAssay (NCI)
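Following 48 hours of exposure in 96-well plates, responses at five concentrations were used to interpolate endpoints linearly. GI50 is the concentration that inhibits growth by half. TGI is the concentration that stops growth completely.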

Key:
Test in all cases: DTP human tumour cell line panel, 48 h; in the data active = GI50 below about 0.43 µM; inactive = the rest
786-0 renal = test system: 786-0 renal
A498 renal = test system: A498 renal
A549 NSCLC = test system: A549 NSCLC
ACHN renal = test system: ACHN renal
BT-549 breast = test system: BT-549 breast
CAKI-1 renal = test system: CAKI-1 renal
CCRF-CEM leukemia = test system: CCRF-CEM leukemia
COLO 205 colon = test system: COLO 205 colon
DU-145 prostate = test system: DU-145 prostate
EKVX NSCLC = test system: EKVX NSCLC
HCC-2998 colon = test system: HCC-2998 colon
HCT-116 colon = test system: HCT-116 colon
HCT-15 colon = test system: HCT-15 colon
HL-60(TB) leukemia = test system: HL-60(TB) leukemia
HOP-62 NSCLC = test system: HOP-62 NSCLC
HOP-92 NSCLC = test system: HOP-92 NSCLC
HS 578T breast = test system: HS 578T breast
HT29 colon = test system: HT29 colon
IGROV1 ovarian = test system: IGROV1 ovarian
K-562 leukemia = test system: K-562 leukemia
KM12 colon = test system: KM12 colon
LOX IMVI melanoma = test system: LOX IMVI melanoma
M14 melanoma = test system: M14 melanoma
MCF7 breast = test system: MCF7 breast
MDA-MB-231 breast = test system: MDA-MB-231 breast
MDA-MB-435 = test system: MDA-MB-435
MOLT-4 leukemia = test system: MOLT-4 leukemia
NCI-H226 lung = test system: NCI-H226 lung
NCI-H460 lung = test system: NCI-H460 lung
NCI-H522 lung = test system: NCI-H522 lung
NCI/ADR-RES ovarian = test system: NCI/ADR-RES ovarian
OVCAR-3 ovarian = test system: OVCAR-3 ovarian
OVCAR-4 ovarian = test system: OVCAR-4 ovarian
OVCAR-5 ovarian = test system: OVCAR-5 ovarian
OVCAR-8 ovarian = test system: OVCAR-8 ovarian
PC-3 prostate = test system: PC-3 prostate
RPMI-8226 leukemia = test system: RPMI-8226 leukemia
RXF 393 renal = test system: RXF 393 renal
SF-268 CNS = test system: SF-268 CNS
SF-295 CNS = test system: SF-295 CNS
SF-539 CNS = test system: SF-539 CNS
SK-MEL-2 melanoma = test system: SK-MEL-2 melanoma
SK-MEL-28 melanoma = test system: SK-MEL-28 melanoma
SK-MEL-5 melanoma = test system: SK-MEL-5 melanoma
SK-OV-3 ovarian = test system: SK-OV-3 ovarian
SN12C renal = test system: SN12C renal
SNB-19 CNS = test system: SNB-19 CNS
SNB-75 CNS = test system: SNB-75 CNS
SR leukemia = test system: SR leukemia
SW-620 colon = test system: SW-620 colon
T-47D breast = test system: T-47D breast
TK-10 renal = test system: TK-10 renal
U251 CNS = test system: U251 CNS
UACC-257 melanoma = test system: UACC-257 melanoma
UACC-62 melanoma = test system: UACC-62 melanoma
UO-31 renal = test system: UO-31 renal

COC(=O)c1ccc(C2SC(C)C(=O)N2NC(=O)C(O)c2ccccc2)cc1 (configuration not stated)
inactive: GI50 (786-0 renal) > 100 µM | GI50 (A498 renal) > 100 µM | GI50 (A549 NSCLC) > 100 µM | GI50 (ACHN renal) > 100 µM | GI50 (BT-549 breast) > 100 µM | GI50 (CAKI-1 renal) > 100 µM | GI50 (CCRF-CEM leukemia) > 100 µM | GI50 (COLO 205 colon) > 100 µM | GI50 (DU-145 prostate) > 100 µM | GI50 (EKVX NSCLC) > 100 µM | GI50 (HCC-2998 colon) > 100 µM | GI50 (HCT-116 colon) > 100 µM | GI50 (HCT-15 colon) > 100 µM | GI50 (HL-60(TB) leukemia) > 100 µM | GI50 (HOP-62 NSCLC) > 100 µM | GI50 (HOP-92 NSCLC) > 100 µM | GI50 (HS 578T breast) > 100 µM | GI50 (HT29 colon) > 100 µM | GI50 (IGROV1 ovarian) > 100 µM | GI50 (K-562 leukemia) > 100 µM | GI50 (KM12 colon) > 100 µM | GI50 (LOX IMVI melanoma) > 100 µM | GI50 (M14 melanoma) > 100 µM | GI50 (MCF7 breast) > 100 µM | GI50 (MDA-MB-231 breast) > 100 µM | GI50 (MDA-MB-435) > 100 µM | GI50 (MOLT-4 leukemia) > 100 µM | GI50 (NCI-H226 lung) > 100 µM | GI50 (NCI-H460 lung) > 100 µM | GI50 (NCI-H522 lung) > 100 µM | GI50 (NCI/ADR-RES ovarian) > 100 µM | GI50 (OVCAR-3 ovarian) > 100 µM | GI50 (OVCAR-4 ovarian) > 100 µM | GI50 (OVCAR-5 ovarian) > 100 µM | GI50 (OVCAR-8 ovarian) > 100 µM | GI50 (PC-3 prostate) > 100 µM | GI50 (RPMI-8226 leukemia) > 100 µM | GI50 (RXF 393 renal) > 100 µM | GI50 (SF-268 CNS) > 100 µM | GI50 (SF-295 CNS) > 100 µM | GI50 (SF-539 CNS) > 100 µM | GI50 (SK-MEL-2 melanoma) > 100 µM | GI50 (SK-MEL-28 melanoma) > 100 µM | GI50 (SK-MEL-5 melanoma) > 100 µM | GI50 (SK-OV-3 ovarian) > 100 µM | GI50 (SN12C renal) > 100 µM | GI50 (SNB-19 CNS) > 100 µM | GI50 (SNB-75 CNS) > 100 µM | GI50 (SR leukemia) > 100 µM | GI50 (SW-620 colon) > 100 µM | GI50 (T-47D breast) > 100 µM | GI50 (TK-10 renal) > 100 µM | GI50 (U251 CNS) > 100 µM | GI50 (UACC-257 melanoma) > 100 µM | GI50 (UACC-62 melanoma) > 100 µM | GI50 (UO-31 renal) > 100 µM
> 100 µM: TGI (786-0 renal) | TGI (A498 renal) | TGI (A549 NSCLC) | TGI (ACHN renal) | TGI (BT-549 breast) | TGI (CAKI-1 renal) | TGI (CCRF-CEM leukemia) | TGI (COLO 205 colon) | TGI (DU-145 prostate) | TGI (EKVX NSCLC) | TGI (HCC-2998 colon) | TGI (HCT-116 colon) | TGI (HCT-15 colon) | TGI (HL-60(TB) leukemia) | TGI (HOP-62 NSCLC) | TGI (HOP-92 NSCLC) | TGI (HS 578T breast) | TGI (HT29 colon) | TGI (IGROV1 ovarian) | TGI (K-562 leukemia) | TGI (KM12 colon) | TGI (LOX IMVI melanoma) | TGI (M14 melanoma) | TGI (MCF7 breast) | TGI (MDA-MB-231 breast) | TGI (MDA-MB-435) | TGI (MOLT-4 leukemia) | TGI (NCI-H226 lung) | TGI (NCI-H460 lung) | TGI (NCI-H522 lung) | TGI (NCI/ADR-RES ovarian) | TGI (OVCAR-3 ovarian) | TGI (OVCAR-4 ovarian) | TGI (OVCAR-5 ovarian) | TGI (OVCAR-8 ovarian) | TGI (PC-3 prostate) | TGI (RPMI-8226 leukemia) | TGI (RXF 393 renal) | TGI (SF-268 CNS) | TGI (SF-295 CNS) | TGI (SF-539 CNS) | TGI (SK-MEL-2 melanoma) | TGI (SK-MEL-28 melanoma) | TGI (SK-MEL-5 melanoma) | TGI (SK-OV-3 ovarian) | TGI (SN12C renal) | TGI (SNB-19 CNS) | TGI (SNB-75 CNS) | TGI (SR leukemia) | TGI (SW-620 colon) | TGI (T-47D breast) | TGI (TK-10 renal) | TGI (U251 CNS) | TGI (UACC-257 melanoma) | TGI (UACC-62 melanoma) | TGI (UO-31 renal)
